The values that follow are results of earlier work, collected in publication PMC8070829, “Discovery of New Coumarin-Based Lead with Potential Anticancer, CDK4 Inhibition and Selective Radiotheranostic Effect: Synthesis, 2D & 3D QSAR, Molecular Dynamics, In Vitro Cytotoxicity, Radioiodination, and Biodistribution Studies” (Molecules, 2021).

The target of one data set is CDK4. Conditions: cited from earlier work.
The next data set has as its target CDK6. As to conditions: cited from earlier work.

As to `CSc1nc(C)c(-c2nc(Nc3ccc(N4CCN(C)CC4)cn3)ncc2F)s1` [VIIc], the values for the inhibition constant Ki at CDK4 and on CDK6 were 0.002 µM and 0.055 µM, respectively.
